Measured values from patent US20100143385A1, “METHODS FOR REDUCING PHOSPHATE ABSORPTION” (priority 2006, published 2010).

Test system: chicks fed a phytic phosphorous basal diet
Experiment: chicken model: chicks fed Pi deficient phytic phosphorous diet with added 1α-hydroxyvitamin D3
Type: in vivo, Single Comb White Leghorn chicks
Description: Animal model: The dietary sources of inorganic phosphate (Pi) are largely mineral phosphates or phosphate from animal tissues and products (milk and eggs). These Pi sources are readily available for absorption by monogastric animals. In diseases where the uptake of phosphorous requires intervention, patients are usually required to avoid these foods and take Pi binders. While this is a useful strategy in reducing the absorption of Pi, patients taking alternative food (e.g., plant based foods) during the treatment of diseases such as end stage renal failure is exposed to another source of phosphate that may serve as a pool of Pi for absorption. Phytic phosphorous (PP) represents 70-80% of all phosphorous in plant based foods. PP is normally unavailable for absorption in monogastric animals when consumed and is excreted with the fecal waste.
Providing 1α-hydroxyvitamin D3 to the chickens fed the Pi deficient diet raised the serum phosphate level. Therefore, this model can be used to test whether anti-phytic acid antibodies would be effective in reducing increased serum phosphate levels from a phytic origin caused by 1α-hydroxyvitamin D3.
Animal experiment: The model used in this study was described by Biehl and Baker, J. Nutr. 1997, 127:2054-2059 with the exception of antibodies to phytic acid. The negative control used in this study was a Pi deficient diet (Pi=inorganic phosphate which are largely mineral phosphates or phosphate from animal tissues and products such as milk and eggs), where the dietary phosphorous used was phytic phosphate. […] The positive control was the same diet as the negative control, but supplemented with 1α-hydroxyvitamin D3 (20 μg/kg diet, Sigma). […] The remaining dietary treatment was the positive control plus the antibody to phytic acid (1 g of dried egg yolk powder produced as described above). The negative and positive controls were fed 1 g/kg diet of dried yolk powder from hens injected with the adjuvant. These egg yolk powders lacked specific antibodies.
A total of 3 treatments were used (negative control, positive control, positive control plus antibody to phytic acid). Six one-day old male Single Comb White Leghorn chicks were assigned to each of the dietary treatments. Chicks were fed the dietary treatments for 10 days, weighed, and blood sampled for determining plasma phosphorous concentration using a Roche/Hitachi analyzer (based on the reaction of phosphate with ammonium molybdate to form ammonium phosphomolybdate without reduction). Excreta (n=1) was collected under each group of 6 chicks for mineral analysis. Chicks were euthanized and the right tibiotarsus of each chick was collected, dried, ether extracted, and ashed for the determination of bone mineral content of fat free, dried bone.
t-Test comparison were used to determine if (1) the addition of 1α-hydroxyvitamin D3 changed the endpoint relative to the negative control diet and (2) the addition of antibody to phytate to the 1α-hydroxyvitamin D3 diet (positive control) reduced the plasma phosphate level. P values are given in the results presented below.

[1] = relative to Pi deficient negative control diet

C=C1/C(=C\C=C2/CCC[C@]3(C)[C@@H]([C@H](C)CCCC(C)C)CC[C@@H]23)C[C@@H](O)C[C@@H]1O [1α-hydroxyvitamin D3]
Plasma Phosphate (chicks, Pi deficient diet, 10 days, 1α-hydroxyvitamin D3 20 μg/kg diet alone, or plus antibody 1 g/kg diet dried egg yolk powder): 6.70 mg/dL
excreta phosphorous (excreta (n=1) collected under each group of 6 chicks): 0.5%
decrease of excreta phosphorous [1]: 22%
increase of bone ash [1]: 8%
increase of plasma phosphorous [1]: 71%
bone ash (right tibiotarsus, fat free dried bone, after 10 days of diet): 37.4%
